# Experimental data published in patent US20140162876A1, “Fungicidal substituted 1--1H-[1,2,4]triazole compounds” (BASF SE, priority 2011, published 2014).
# How the values were obtained:
# Septoria tritici [1] = test: G1 Preventative control of leaf blotch on wheat caused by Septoria tritici (Septtr P7), green house; format: in vivo; settings: wheat sprayed 7 days before inoculation, % diseased leaf area, untreated control 80
# Method: The spray solutions were prepared in several steps: The stock solution were prepared: a mixture of acetone and/or dimethylsulfoxide and the wetting agent/emulsifier Wettol, which is based on ethoxylated alkylphenoles, in a relation (volume) solvent-emulsifier of 99 to 1 was added to 25 mg of the compound to give a total of 5 ml. Water was then added to total volume of 100 ml. This stock solution was diluted with the described solvent-emulsifier-water mixture to the given concentration. G1 Preventative Control of Leaf Blotch on Wheat Caused by Septoria tritici (Septtr P7) Leaves of pot-grown wheat seedling were sprayed to run-off with an aqueous suspension of the active compound or their mixture, prepared as described. The plants were allowed to air-dry. Seven days later the plants were inoculated with an aqueous spore suspension of Septoria tritici. Then the trial plants were immediately transferred to a humid chamber at 18-22° C. and a relative humidity close to 100%. […] After 4 weeks the extent of fungal attack on the leaves was visually assessed as % diseased leaf area.
# Phakopsora pachyrhizi = test: G4 Protective control of soy bean rust on soy beans caused by Phakopsora pachyrhizi (Phakpa P2), green house; format: in vivo; settings: soy bean sprayed 2 days before inoculation, % diseased leaf area, untreated control 90
# Alternaria solani = test: M3 Activity against early blight caused by Alternaria solani (Alteso), microtest; format: cell-based; settings: microtiter plate, 7 days after inoculation
# Septoria tritici [2] = test: G2 Curative control of leaf blotch on wheat caused by Septoria tritici (Septtr K7), green house; format: in vivo; settings: wheat sprayed 7 days after inoculation (curative), % diseased leaf area, untreated control 80
# Method: The spray solutions were prepared in several steps: The stock solution were prepared: a mixture of acetone and/or dimethylsulfoxide and the wetting agent/emulsifier Wettol, which is based on ethoxylated alkylphenoles, in a relation (volume) solvent-emulsifier of 99 to 1 was added to 25 mg of the compound to give a total of 5 ml. Water was then added to total volume of 100 ml. This stock solution was diluted with the described solvent-emulsifier-water mixture to the given concentration. G2 Curative Control of Leaf Blotch on Wheat Caused by Septoria tritici (Septtr K7) Leaves of pot-grown wheat seedling were inoculated with an aqueous spore suspension of Septoria tritici. Then the trial plants were immediately transferred to a humid chamber at 18-22° C. and a relative humidity close to 100%. […] Seven days after inoculation the plants were sprayed to run-off with an aqueous suspension of the active compound or their mixture, prepared as described. […] After 4 weeks the extent of fungal attack on the leaves was visually assessed as % diseased leaf area.
# Septoria tritici [3] = test: M4 Activity against leaf blotch on wheat caused by Septoria tritici (Septtr), microtest; format: cell-based; settings: microtiter plate, 7 days after inoculation
# Pyricularia oryzae = format: cell-based; settings: microtiter plate, 7 days after inoculation
# Botrytis cinerea = test: M2 Activity against the grey mold Botrytis cinerea in the microtiterplate test (Botrci); format: cell-based; settings: microtiter plate, 7 days after inoculation
smiles,measurement,setting,value
COC(C)(Cn1cncn1)c1ccc(Oc2ccc(Cl)cc2)cc1Cl (stereo not shown),Disease (%) at 16 ppm Septtr P7,Septoria tritici [1],80%
CCC(Cn1cncn1)(OC)c1ccc(Oc2ccc(Cl)cc2)cc1Cl (stereo not shown),Disease (%) at 16 ppm Phakpa P2,Phakopsora pachyrhizi,80%
CCOC(C)(Cn1cncn1)c1ccc(Oc2ccc(Cl)cc2)cc1Cl (stereo not shown) [Compound I-1],Disease (%) at 250 ppm Phakpa P2,Phakopsora pachyrhizi,5%
same,Disease (%) at 16 ppm Septtr P7,Septoria tritici [1],40%
same,Disease (%) at 0.125 ppm Alteso,Alternaria solani,25%
same,Disease (%) at 250 ppm Septtr K7,Septoria tritici [2],10%
same,Disease (%) at 0.032 ppm Septtr,Septoria tritici [3],5%
same,Disease (%) at 0.125 ppm Pyrior,Pyricularia oryzae,50%
same,Disease (%) at 2 ppm Botrci,Botrytis cinerea,0%
"CCOC(CC)(Cn1cncn1)c1ccc(Oc2ccc(Cl)cc2)cc1Cl (stereo not shown) [Compound I-2, 1-[2-[2-chloro-4-(4-chlorophenoxy)phenyl]-2-ethoxy-butyl]-1,2,4-triazole]",Disease (%) at 16 ppm Phakpa P2,Phakopsora pachyrhizi,40%
CCOC(Cn1cncn1)c1ccc(Oc2ccc(Cl)cc2)cc1Cl (stereo not shown) [drawing 21],Disease (%) at 250 ppm Phakpa P2,Phakopsora pachyrhizi,30%
same,Disease (%) at 250 ppm Septtr K7,Septoria tritici [2],40%
CCOC(Cn1cncn1)c1ccc(Oc2ccc(Cl)cc2)cc1Cl (stereo not shown) [drawing 24],Disease (%) at 0.125 ppm Alteso,Alternaria solani,44%
same,Disease (%) at 0.032 ppm Septtr,Septoria tritici [3],31%
same,Disease (%) at 0.125 ppm Pyrior,Pyricularia oryzae,84%
same,Disease (%) at 2 ppm Botrci,Botrytis cinerea,24%
